In data set [1] the target is T1, CCK2R on A431-CCK2R cells (human CCK2R) (Homo sapiens, UniProt P32239).
T1 construct: expressed in transfected cells; host or cells: A431 human epidermoid carcinoma cells, stably transfected (provided by Dr. Luigi Aloj)
T1 sequence (P32239 1-447): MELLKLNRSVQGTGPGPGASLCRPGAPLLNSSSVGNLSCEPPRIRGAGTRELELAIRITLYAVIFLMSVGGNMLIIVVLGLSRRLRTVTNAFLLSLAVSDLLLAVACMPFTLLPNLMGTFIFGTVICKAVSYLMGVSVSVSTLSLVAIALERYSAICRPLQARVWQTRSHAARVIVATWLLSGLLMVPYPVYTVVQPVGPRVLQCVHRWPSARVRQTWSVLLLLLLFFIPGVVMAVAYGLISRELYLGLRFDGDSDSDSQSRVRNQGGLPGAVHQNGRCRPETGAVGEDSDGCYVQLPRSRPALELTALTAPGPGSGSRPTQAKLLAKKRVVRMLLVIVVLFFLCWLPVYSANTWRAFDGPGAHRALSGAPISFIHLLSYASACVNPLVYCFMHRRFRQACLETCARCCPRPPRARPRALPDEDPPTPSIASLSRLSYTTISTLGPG
The data set can be described thus: Receptor affinity competition assay against [125I][3-iodo-Tyr12,Leu15]gastrin-I. It is filed as binding. The conditions noted are these: competition against [125I][3-iodo-Tyr12,Leu15]gastrin-I on A431-CCK2R cells, 1 h at RT; n = 3 (Ga-DOTA-MGS5 n = 1).
Procedure: A431-CCK2R and A431-mock cells were cultured in Dulbecco’s Modified Eagle Medium (DMEM) and AR42J cells were cultured in RPMI-1640 medium, both supplemented with 10% (v/v) fetal bovine serum and 5 mL of a 100x penicillin–streptomycin–glutamine mixture at 37 °C in a humidified 95% air/5% CO2 atmosphere. Media and supplements were purchased from Invitrogen Corporation (Lofer, Austria).
Binding assays on A431-CCK2R cells were carried out as previously described [37]. The cells were incubated with increasing concentrations of the peptide conjugates and [^125I][3-iodo-Tyr^12,Leu^15]gastrin-I (~20,000 cpm) for 1 h at RT. Half-maximum inhibitory concentration (IC50) values were calculated after nonlinear regression using Origin software (Microcal Origin 6.1, Northampton, MA, USA).

Data set [2] can be described thus: 14-day extended single-dose intravenous toxicity study in rats. Type of data set: in vivo. On the procedure:
In the preclinical evaluation of the safety profile of DOTA-MGS5, a targeted approach was followed for the 14-day extended single-dose toxicity study conducted in male Wistar rats. Instead of performing the study in animals of both sexes at a single dose level, the non-clinical evaluation was confined to male animals, including, however, three different dose levels based on mg/kg scaling and body surface scaling (applying a factor of 6.2). Considering a maximum dose of 50 µg administered to patients and an exposure margin of 100-fold the clinical dose, a dose level of 0.5 mg/kg body weight was calculated for the study and used as medium dose. Two additional dose levels of 0.1 mg/kg body weight and 2.5 mg/kg body weight were selected to allow a more accurate evaluation of the safety profile. Based on the preclinical biodistribution studies, the stomach, pancreas, and kidneys were identified as the main target organs. In addition to these organs, the liver and colon as potential additional routes of excretion, as well as spleen and sternum (including bone marrow), were also included in the histopathological evaluation.
A NOAEL (no observed adverse effect level) of 2.5 mg/kg body weight was established from the study for the single administration of DOTA-MGS5. When considering body surface scaling from rats to humans, the NOAEL of 2.5 mg/kg body weight translates to a HED (human equivalent dose) of 0.4 mg/kg body weight. By applying a safety factor of 100, a maximum dose of 4 µg/kg body weight was established for human subjects receiving the initial clinical dose. For the first PET/CT examinations with ^68Ga-DOTA-MGS5, a maximum dose of 50 µg could be established as clinical dose, which remains well below the maximum dose of 4 µg/kg body weight.
The safety of the intravenous injection was tested for unlabeled DOTA-MGS5 in a GLP-compliant 14-day extended single-dose intravenous toxicity study in rats using the intravenous route of administration. The study was designed following a targeted microdose approach based on the ICH guideline M3 (R2) on non-clinical safety studies for the conduct of human clinical trials and marketing authorization for pharmaceuticals (EMA/CPMP/ICH/286/1995, December 2009), as well as the draft guideline on the non-clinical requirements for radiopharmaceuticals (EMA/CHMP/SWP/686140/2018, 15 November 2018). The study was conducted in a GLP-compliant laboratory (BSL BIOSERVICE Scientific Laboratories Munich GmbH, Planegg/Munich, Germany) using 60 6–7-week-old male healthy Wistar rats (Crl: WI(Han), Full Barrier, Charles River, Sulzfeld, Germany). […] Body weight and food consumption was determined on a weekly basis. […]

A short description of another data set: in vivo. The settings on record: female, BALB/c, mouse, iv, 20 pmol peptide. As for the experimental part:
The biodistribution profile of ^68Ga-DOTA-MGS5 in female BALB/c mice was evaluated for the time points of 5, 20, 60, and 90 min post injection (p.i.).
Biodistribution studies evaluating the pharmacokinetics and tissue distribution of ^68Ga-DOTA-MGS5 were performed in 6-week-old female BALB/c mice (n = 12). Groups of three mice for each time point were injected intravenously via a lateral tail vein with ~1 MBq of ^68Ga-DOTA-MGS5 corresponding to 20 pmol peptide. The mice were euthanized by cervical dislocation 5, 20, 60, and 90 min after injection and different tissues (blood, lung, heart, muscle, spleen, intestine, liver, kidneys, pancreas, stomach, and femur) were removed, weighed, and their radioactivity measured in a gamma-counter together with a standard and the residual body. Results were expressed as percentage of injected activity per organ (% IA) and per gram tissue (% IA/g).

In data set [3] the target is T2, AR42J cells with physiological expression of rat CCK2R (Rattus norvegicus, UniProt P30553).
T2 construct: In AR42J cells with physiological expression of rat CCK2R; host or cells: AR42J rat pancreatic tumor cells
T2 sequence (P30553 1-452): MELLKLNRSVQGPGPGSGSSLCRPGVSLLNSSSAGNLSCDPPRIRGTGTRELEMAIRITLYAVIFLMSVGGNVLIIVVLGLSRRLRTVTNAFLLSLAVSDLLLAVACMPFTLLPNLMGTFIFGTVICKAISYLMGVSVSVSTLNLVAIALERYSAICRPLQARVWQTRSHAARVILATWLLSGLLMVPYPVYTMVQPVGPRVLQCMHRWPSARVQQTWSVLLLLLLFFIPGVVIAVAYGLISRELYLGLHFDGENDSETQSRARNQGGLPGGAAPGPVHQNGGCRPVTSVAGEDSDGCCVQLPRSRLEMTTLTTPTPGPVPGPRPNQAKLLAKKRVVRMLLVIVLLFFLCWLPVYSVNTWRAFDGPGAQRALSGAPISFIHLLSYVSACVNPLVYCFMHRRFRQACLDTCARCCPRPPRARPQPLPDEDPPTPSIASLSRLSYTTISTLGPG
The conditions noted are these: 4 h after incubation; cited from earlier work.

The target in data set [4] is T3, A431-CCK2R cells (human CCK2R) (Homo sapiens, UniProt P32239).
T3 construct: expressed in transfected cells; host or cells: A431 human epidermoid carcinoma cells, stably transfected (provided by Dr. Luigi Aloj)
T3 sequence (P32239 1-447): T1 sequence (P32239 1-447)
The conditions noted are these: 1 h incubation; cited from earlier work. As for the experimental part:
For the time point of 1 h incubation, a cell internalization of ~20% was reported for ^177Lu-DOTA-PP-F11N in A431-CCK2R cells.

[5] abbreviates: total radioactivity, uptake in blood.
Where [6] appears, read: total radioactivity, uptake in femur.
Where [7] appears, read: total radioactivity, uptake in heart.
Setting [8] is: total radioactivity, uptake in intestine.
Where [9] appears, read: total radioactivity, uptake in kidneys.
Where [10] appears, read: total radioactivity, uptake in liver.
[11] abbreviates: total radioactivity, uptake in lung.
[12] abbreviates: total radioactivity, uptake in muscle.
The mark [13] stands for this setting: total radioactivity, uptake in pancreas.
[14] abbreviates: total radioactivity, uptake in spleen.
[15] abbreviates: total radioactivity, uptake in stomach.

Data on five molecules can be found in paper PMC8235783, “Radiopharmaceutical Formulation and Preclinical Testing of ^68Ga-Labeled DOTA-MGS5 for the Regulatory Approval of a First Exploratory Clinical Trial” (Pharmaceuticals, 2021).

For the molecule “Ga-DOTA-MGS5: DOTA-MGS5 labeled with the stable isotope of gallium, reference standard”, the IC50 (as a rule, the concentration that gives 50% inhibition) in data set [1] turned out to be 0.5 ± 0.1 nM.

With `CCCC[C@@H](C(=O)N[C@@H](CC(=O)O)C(=O)N[C@@H](Cc1cccc2ccccc12)C(N)=O)N(C)C(=O)[C@H](Cc1c[nH]c2ccccc12)NC(=O)CNC(=O)[C@H](Cc1ccc(O)cc1)NC(=O)[C@H](C)NC(=O)[C@@H](CCC(=O)O)NC(=O)CN1CCN(CC(=O)O)CCN(CC(=O)O)CCN(CC(=O)O)CC1` [^68Ga-DOTA-MGS5, metal not drawn], the “maximum dose established as clinical dose” value in data set [2] (rat, in vivo) came out at 50 µg. In “in vivo” (1.5 h), this molecule gave an uptake in blood of 0.94 ± 0.08 % IA/g. The tissue uptake dose at 5 min in the data set “in vivo” (total radioactivity) was found to be 81.8 ± 2.5 %ID. Moreover, the tissue uptake dose at 1.5 h in the data set “in vivo” (total radioactivity) was found to be 11.4 ± 1.7 %ID. In addition, the tissue uptake (usually the share of the injected amount in each gram of the tissue) at 5 min in “in vivo” (setting [5]) is 17.6 ± 3.01 %ID/g; in “in vivo” (setting [6]), 2.77 ± 0.34 %ID/g; in “in vivo” (setting [7]), 5.11 ± 0.07 %ID/g; in “in vivo” (setting [8]), 2.42 ± 0.21 %ID/g; in the data set “in vivo” (setting [9]), 17.6 ± 2.79 %ID/g; in the data set “in vivo” (setting [10]) it was 5.02 ± 0.06 %ID/g. Also, the tissue uptake at 5 min in the data set “in vivo” (setting [11]) worked out at 8.51 ± 2.33 %ID/g; in “in vivo” (setting [12]), 2.89 ± 0.18 %ID/g; in the data set “in vivo” (setting [13]), 4.03 ± 0.19 %ID/g; in “in vivo” (setting [14]) it was 3.53 ± 0.43 %ID/g; in “in vivo” (setting [15]), 6.63 ± 0.23 %ID/g. The tissue uptake at 20 min came to 6.76 ± 1.17 %ID/g in the data set “in vivo” (setting [5]); 1.75 ± 0.93 %ID/g in the data set “in vivo” (setting [6]); 2.24 ± 0.57 %ID/g in the data set “in vivo” (setting [7]); 1.22 ± 0.25 %ID/g in “in vivo” (setting [8]); 8.41 ± 1.33 %ID/g in the data set “in vivo” (setting [9]); 2.28 ± 0.31 %ID/g in “in vivo” (setting [10]). Moreover, the tissue uptake at 20 min amounted to 3.78 ± 0.53 %ID/g in “in vivo” (setting [11]); 1.03 ± 0.21 %ID/g in the data set “in vivo” (setting [12]); 2.17 ± 0.16 %ID/g in the data set “in vivo” (setting [13]); 1.7 ± 0.38 %ID/g in “in vivo” (setting [14]); 4.09 ± 0.98 %ID/g in the data set “in vivo” (setting [15]). Moreover, the tissue uptake at 1 h in “in vivo” (setting [5]) stood at 1.99 ± 0.22 %ID/g; in “in vivo” (setting [6]), 0.62 ± 0.09 %ID/g; in the data set “in vivo” (setting [7]), 0.7 ± 0.16 %ID/g; in “in vivo” (setting [8]) it was 0.75 ± 0.17 %ID/g; in the data set “in vivo” (setting [9]), 5.11 ± 0.33 %ID/g; in “in vivo” (setting [10]) it was 1.21 ± 0.12 %ID/g. Besides, the tissue uptake at 1 h was found to be 1.1 ± 0.11 %ID/g in the data set “in vivo” (setting [11]); 0.49 ± 0.19 %ID/g in the data set “in vivo” (setting [12]); 1.5 ± 0.38 %ID/g in the data set “in vivo” (setting [13]); 0.71 ± 0.05 %ID/g in the data set “in vivo” (setting [14]); 4.63 ± 0.65 %ID/g in “in vivo” (setting [15]). Further, the tissue uptake at 1.5 h amounted to 0.9 ± 0.1 %ID/g in the data set “in vivo” (setting [5]); 0.55 ± 0.09 %ID/g in the data set “in vivo” (setting [6]); 0.35 ± 0.02 %ID/g in “in vivo” (setting [7]); 0.62 ± 0.08 %ID/g in “in vivo” (setting [8]); 4.6 ± 0.32 %ID/g in the data set “in vivo” (setting [9]); 1 ± 0.06 %ID/g in the data set “in vivo” (setting [10]). The tissue uptake at 1.5 h in “in vivo” (setting [11]) turned out to be 0.59 ± 0.1 %ID/g; in “in vivo” (setting [12]), 0.18 ± 0.04 %ID/g; in the data set “in vivo” (setting [13]), 1.42 ± 0.3 %ID/g; in the data set “in vivo” (setting [14]), 0.69 ± 0.09 %ID/g; in the data set “in vivo” (setting [15]) it was 4.12 ± 0.3 %ID/g.

Turning to “DOTA-(DGlu)6-Ala-Tyr-Gly-Trp-Met-Asp-Phe-NH2 [^111In-CP04, minigastrin analog radiolabeled with indium-111, in clinical studies]”, the cell uptake in data set [3] is recorded as 14.4 ± 0.8%.

Turning to “DOTA-(DGlu)6-Ala-Tyr-Gly-Trp-Nle-Asp-Phe-NH2 [^177Lu-DOTA-PP-F11N, minigastrin analog radiolabeled with lutetium-177, in clinical studies]”, the cell internalization in data set [4] was ~ 20%.

For the molecule `CCCC[C@@H](C(=O)N[C@@H](CC(=O)O)C(=O)N[C@@H](Cc1cccc2ccccc12)C(N)=O)N(C)C(=O)[C@H](Cc1c[nH]c2ccccc12)NC(=O)CNC(=O)[C@H](Cc1ccc(O)cc1)NC(=O)[C@H](C)NC(=O)[C@@H](CCC(=O)O)NC(=O)CN1CCN(CC(=O)O)CCN(CC(=O)O)CCN(CC(=O)O)CC1` [DOTA-MGS5, DOTA-DGlu-Ala-Tyr-Gly-Trp-(N-Me)Nle-Asp-1-Nal-NH2], the “treatment-related mortality or clinical symptoms” value in data set [2] (i.v. 0.1, 0.5 and 2.5 mg/kg BW, male Wistar rats, until end of observation periods (2 and 14 days)) was “no treatment-related mortality or clinical symptoms occurred”. In data set [2] (rat, in vivo), the “HED (human equivalent dose)” value turned out to be 0.4 mg/kg body weight and the “maximum dose for human subjects receiving the initial clinical dose” value is recorded as 4 µg/kg body weight. Further, in data set [1], the IC50 came out at 0.5 ± 0.1 nM.
